Columns and labels:
Cytotoxicity CC50, MRC-5 = type: cell-based; conditions: human, MRC-5 cells (embryonal lung fibroblasts)
From the text: a Values represent the geometric mean and multiplicative standard deviation of 3 – 5 primary human hepatocyte (PHH) donors or 5 – 10 independent experiments.
b MT-4: human T-lymphoblastoid cell line; PBMC: peripheral blood mononuclear cell; Gal-HepG2: galactose adapted human hepatoblastoma cell line; Huh-7: human hepatoma cell line; Gal-PC3: galactose adapted human prostate carcinoma cell line; MRC-5: Medical Research Council 5 embryonal lung fibroblast; NRVM: neonatal rat ventricular cardiomyocytes

KDM4B = target: T1, KDM4B (Homo sapiens, UniProt O94953); assay: KDM4B enzymatic assay (AlphaLISA); type: biochemical
T1 sequence (O94953 1-1096): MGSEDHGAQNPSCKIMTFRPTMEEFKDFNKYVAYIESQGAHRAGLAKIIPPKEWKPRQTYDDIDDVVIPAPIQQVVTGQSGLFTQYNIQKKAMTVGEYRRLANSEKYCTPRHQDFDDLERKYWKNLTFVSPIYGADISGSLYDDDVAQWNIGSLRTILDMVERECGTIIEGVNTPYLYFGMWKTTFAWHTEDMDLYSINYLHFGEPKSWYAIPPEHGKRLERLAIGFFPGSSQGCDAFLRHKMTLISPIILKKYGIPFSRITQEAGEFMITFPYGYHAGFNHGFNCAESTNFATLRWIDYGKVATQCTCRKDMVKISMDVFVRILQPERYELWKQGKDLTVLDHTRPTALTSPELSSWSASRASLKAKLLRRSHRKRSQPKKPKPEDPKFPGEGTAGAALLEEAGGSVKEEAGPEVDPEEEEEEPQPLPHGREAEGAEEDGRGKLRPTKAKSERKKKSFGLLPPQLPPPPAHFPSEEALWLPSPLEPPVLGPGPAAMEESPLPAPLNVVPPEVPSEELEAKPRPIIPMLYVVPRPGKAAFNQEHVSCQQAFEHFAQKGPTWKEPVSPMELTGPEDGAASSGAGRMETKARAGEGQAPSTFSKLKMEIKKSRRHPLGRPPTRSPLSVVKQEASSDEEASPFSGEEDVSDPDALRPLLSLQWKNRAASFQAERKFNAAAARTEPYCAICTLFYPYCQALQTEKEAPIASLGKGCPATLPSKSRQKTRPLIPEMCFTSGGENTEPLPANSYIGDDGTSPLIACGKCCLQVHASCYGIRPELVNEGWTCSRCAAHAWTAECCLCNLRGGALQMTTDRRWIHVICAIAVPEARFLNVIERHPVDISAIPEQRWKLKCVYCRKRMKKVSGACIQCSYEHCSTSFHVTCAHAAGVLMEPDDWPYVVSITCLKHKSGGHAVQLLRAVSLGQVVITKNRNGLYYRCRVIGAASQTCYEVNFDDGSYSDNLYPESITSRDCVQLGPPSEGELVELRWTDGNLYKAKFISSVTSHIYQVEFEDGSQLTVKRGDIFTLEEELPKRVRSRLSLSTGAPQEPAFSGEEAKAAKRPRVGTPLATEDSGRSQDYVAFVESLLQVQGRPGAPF
Description: The following assay protocol was used for all histone demethylases tested except KDM1A, KDM5A, B, and D, which are described below. Compounds were serially diluted into a 384-well Alpha plate as a DMSO solution and mixed with 5 μL reaction buffer (buffer A) containing 50 mM HEPES (pH 7.0), 0.1% BSA, and 0.003% Tween-20. The enzyme of interest was pre-incubated with 15 μM of Fe^2+ for 10 min (except 30 min for KDM2B) in reaction buffer A. 5 μL of the enzyme mixture was added to each of the compound-containing wells and incubated for 10 min. The reaction was started by addition of a 5 μL mixture containing 300 nM peptide substrate, 75 μM L-ascorbic acid, and 30 μM α-ketoglutarate in buffer A. This final 15 μL of reaction mixture was incubated for 20 min for KDM5B and 1 hour for the other KDM enzymes. The reaction was quenched with 10 μL of diluted AlphaLISA Acceptor beads (1:400) in Epigenetics Buffer and incubated for 60 min. The Donor beads were diluted 1:400 into Epigenetics Buffer in the dark and 10 μL of this was added to each well and incubated for another 60 min in the dark. The assay plates were read on an Enspire plate reader (PerkinElmer) using a standard AlphaLISA program.
Data was analyzed using GraphPad Prism 6.0 (La Jolla, CA). […] IC50 values were calculated as an average of at least two independent experiments.

Fold Selectivity Compared to KDM5A (KDM4B; IC50 of KDM4B over KDM5A) [fold] | IC50 (KDM4B; enzyme concentration 1 nM) [nM] | SMILES | CC50 (Cytotoxicity CC50, MRC-5) [µM]
13 | 4.7 | CCN(CCN(C)C)C(=O)CNCc1cc(C(=O)O)ccn1 [GS-080] | > 44
 |  | CCOC(=O)c1ccnc(CNCC(=O)N(CC)CCN(C)C)c1 [GS-5801] | > 44

From paper PMC9728921, “Characterization of a KDM5 small molecule inhibitor with antiviral activity against hepatitis B virus” (PLOS ONE, 2022)
